Patent US20210277003A1, “OGA INHIBITOR COMPOUNDS” (Janssen Pharmaceutica NV, priority 2018, published 2021)

Target: T1, recombinant human Meningioma Expressed Antigen 5 (MGEA5), also referred to as O-GlcNAcase (OGA) (Homo sapiens, UniProt O60502)
T1 construct: Full length OGA enzyme was purchased at OnGene (cat #TP322411); purchased OnGene (so in the source)
T1 sequence (O60502 1-916): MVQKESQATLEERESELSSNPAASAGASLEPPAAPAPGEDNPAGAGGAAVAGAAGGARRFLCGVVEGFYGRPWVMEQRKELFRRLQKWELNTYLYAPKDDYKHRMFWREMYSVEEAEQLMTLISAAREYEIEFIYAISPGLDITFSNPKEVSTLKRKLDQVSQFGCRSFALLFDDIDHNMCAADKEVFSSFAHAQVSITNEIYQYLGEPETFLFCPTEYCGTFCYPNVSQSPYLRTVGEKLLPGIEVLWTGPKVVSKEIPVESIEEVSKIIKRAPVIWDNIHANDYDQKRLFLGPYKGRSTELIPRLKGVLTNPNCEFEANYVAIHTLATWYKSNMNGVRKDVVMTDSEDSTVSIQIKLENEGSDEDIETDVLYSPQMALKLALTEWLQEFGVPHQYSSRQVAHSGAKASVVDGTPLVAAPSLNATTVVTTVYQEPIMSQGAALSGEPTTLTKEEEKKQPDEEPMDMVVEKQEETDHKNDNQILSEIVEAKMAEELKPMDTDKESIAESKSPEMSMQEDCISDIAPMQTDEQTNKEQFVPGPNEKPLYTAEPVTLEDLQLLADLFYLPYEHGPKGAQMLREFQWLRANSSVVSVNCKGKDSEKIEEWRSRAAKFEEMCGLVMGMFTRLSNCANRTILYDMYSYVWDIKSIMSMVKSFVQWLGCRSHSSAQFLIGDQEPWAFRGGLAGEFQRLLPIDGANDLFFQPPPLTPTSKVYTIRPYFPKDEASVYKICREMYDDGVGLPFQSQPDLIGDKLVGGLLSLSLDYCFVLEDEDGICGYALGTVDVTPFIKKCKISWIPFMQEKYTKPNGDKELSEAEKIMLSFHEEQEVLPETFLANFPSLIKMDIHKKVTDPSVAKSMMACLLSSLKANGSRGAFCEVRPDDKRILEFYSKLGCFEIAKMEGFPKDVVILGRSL
Assay: OGA biochemical assay: inhibition of hydrolysis of fluorescein mono-ß-D-N-Acetyl-Glucosamine (FM-GlcNAc), fluorescence readout
Settings: FM-GlcNAc substrate; for Emax: read-out: Enzymatic Emax (%); for IC50: read-out: Enzymatic hOGA, pIC50 (converted)
From the text: The assay is based on the inhibition of the hydrolysis of fluorescein mono-ß-D-N-Acetyl-Glucosamine (FM-GlcNAc) (Mariappa et al. 2015, Biochem J 470:255) by the recombinant human Meningioma Expressed Antigen 5 (MGEA5), also referred to as O-GlcNAcase (OGA). The hydrolysis FM-GlcNAc (Marker Gene technologies, cat #M1485) results in the formation of ß-D-N-glucosamineacetate and fluorescein. The fluorescence of the latter can be measured at excitation wavelength 485 nm and emission wavelength 538 nm. An increase in enzyme activity results in an increase in fluorescence signal. Full length OGA enzyme was purchased at OnGene (cat #TP322411). The enzyme was stored in 25 mM Tris.HCl, pH 7.3, 100 mM glycine, 10% glycerol at −20° C. Thiamet G and GlcNAcStatin were tested as reference compounds (Yuzwa et al. 2008 Nature Chemical Biology 4:483; Yuzwa et al. 2012 Nature Chemical Biology 8:393). The assay was performed in 200 mM Citrate/phosphate buffer supplemented with 0.005% Tween-20. 35.6 g Na2HPO4 2 H2O (Sigma, #C0759) were dissolved in 1 L water to obtain a 200 mM solution. 19.2 g citric acid (Merck, #1.06580) was dissolved in 1 L water to obtain a 100 mM solution. pH of the sodium phosphate solution was adjusted with the citric acid solution to 7.2. The buffer to stop the reaction consists of a 500 mM Carbonate buffer, pH 11.0. 734 mg FM-GlcNAc were dissolved in 5.48 mL DMSO to obtain a 250 mM solution and was stored at −20° C. OGA was used at a 2 nM concentration and FM-GlcNAc at a 100 uM final concentration. Dilutions were prepared in assay buffer. 50 nl of a compound dissolved in DMSO was dispensed on Black Proxiplate™ 384 Plus Assay plates (Perkin Elmer, #6008269) and 3 μl fl-OGA enzyme mix added subsequently. Plates were pre-incubated for 60 min at room temperature and then 2 μl FM-GlcNAc substrate mix added. […] Plates were briefly centrifuged for 1 min at 1000 rpm and incubate at room temperature for 6 h. To stop the reaction 5 μl STOP buffer were added and plates centrifuge again 1 min at 1000 rpm. Fluorescence was quantified in the Thermo Scientific Fluoroskan Ascent or the PerkinElmer EnVision with excitation wavelength 485 nm and emission wavelength 538 nm. For analysis a best-fit curve is fitted by a minimum sum of squares method. From this an IC50 value and Hill coefficient was obtained. High control (no inhibitor) and low control (saturating concentrations of standard inhibitor) were used to define the minimum and maximum values.

Compound	Enzymatic hOGA; pIC50	Emax	IC50
CCC(C)(O)Cn1ccc2c(Nc3c(Cl)cc(F)cc3Cl)nccc21 (stereo not drawn) [Compound 106]	6.64	103%	–
Fc1cc(Cl)c(Nc2nccc3c2ccn3Cc2cocn2)c(Cl)c1 [Compound 121]	7.25	103%	–
Cn1ccnc1Cn1ccc2c(Nc3c(Cl)cccc3Cl)nccc21 [Compound 168]	–	98.1%	562 nM
Clc1cccc(Cl)c1Nc1nccc2c1ccn2CCC1COC1 [Compound 98]	6.54	98%	–
Clc1cccc(Cl)c1Nc1nccc2c1ccn2Cc1ncc[nH]1 [Compound 191]	–	98.8%	229 nM
CCC(C)(F)Cn1ccc2c(Nc3c(C)ccnc3C)nccc21 (stereo not drawn) [Compound 108]	7.32	102%	–
CCCC(C)n1ccc2c(Nc3c(C)cncc3C)nccc21 (stereo not drawn) [Compound 33]	–	99%	309 nM
N#CCCCn1ccc2c(Nc3c(Cl)cncc3Cl)nccc21 [Compound 36]	–	100%	275 nM
Cc1ccnc(C)c1Nc1nccc2c1ccn2CC(F)(F)F [Compound 79]	–	101%	138 nM
Cc1ccnc(C)c1Nc1nccc2c1ccn2CCN1CC(F)(F)C1 [Compound 103]	6.12	99.7%	–
Fc1cc(Cl)c(Nc2nccc3c2ccn3-c2ncco2)c(Cl)c1 [Compound 182]	–	97.8%	309 nM
CCCCn1ccc2c(Nc3c(C)cnnc3C)nccc21 [Compound 17]	6.94	102%	–
Cc1cncc(C(C)C)c1Nc1nccc2c1ccn2CC1COC1 [Compound 32]	–	98%	234 nM
Cc1cncc(Cl)c1Nc1nccc2c1ccn2CC1COC1 [Compound 30]	–	93%	1410 nM
Cc1ccnc(C)c1Nc1nccc2c1ccn2CCC1CCO1 (stereo not drawn) [Compound 21]	6.61	96%	–
CCCCn1ccc2c(Nc3c(C)cc(N(C)C(C)=O)cc3C)nccc21 [Compound 102]	–	99%	229 nM
Fc1cc(Cl)c(Nc2nccc3c2ccn3Cc2cnco2)c(Cl)c1 [Compound 142]	6.56	99.2%	–
COCCn1ccc2c(Nc3c(Cl)cncc3Cl)nccc21 [Compound 28]	–	83%	2190 nM

Compound	Enzymatic hOGA; pIC50	Emax	IC50
CCn1ccc2c(Nc3c(C)cc(F)cc3C)nccc21 [Compound 37]	–	101%	251 nM
CCCCn1ccc2c(Nc3c(C)cnc4c3OCCO4)nccc21 [Compound 20]	7.4	102%	–
CCC(Cn1ccc2c(Nc3c(Cl)cc(F)cc3Cl)nccc21)OC (stereo not drawn) [Compound 104]	6.14	96.9%	–
CCC(O)Cn1ccc2c(Nc3c(C)ccnc3C)nccc21 (stereo not drawn) [Compound 93]	7.44	101%	–
N#Cc1cnc(-n2ccc3c(Nc4c(Cl)cc(F)cc4Cl)nccc32)[nH]1 [Compound 181]	–	92.7%	794 nM
Fc1cc(Cl)c(Nc2nccc3c2ccn3-c2c[nH]cn2)c(Cl)c1 [Compound 190]	–	96.3%	562 nM
Cn1cnc(Cn2ccc3c(Nc4c(Cl)cc(F)cc4Cl)nccc32)c1 [Compound 120]	6.77	99.2%	–
CCC(C)(F)Cn1ccc2c(Nc3c(Cl)cc(F)cc3Cl)nccc21 (stereo not drawn) [Compound 111]	7.62	102%	–
Cc1ccc(-n2ccc3c(Nc4c(Cl)cccc4Cl)nccc32)nc1 [Compound 165]	–	101%	38 nM
Cc1ccnc(C)c1Nc1nccc2c1ccn2CC1(C)COC1 [Compound 22]	6.54	99%	–
Cc1ccnc(C)c1Nc1nccc2c1ccn2CC1COC1 [Compound 4]	6.03	93%	–
Cc1ncnc(C(C)C)c1Nc1nccc2c1ccn2CCC(F)(F)F [Compound 192]	–	98.3%	182 nM
Cc1cncc(C)c1Nc1nccc2c1ccn2CC1COC1 [Compound 29]	–	88%	1620 nM
CN(C)S(=O)(=O)Cn1ccc2c(Nc3c(Cl)cncc3Cl)nccc21 [Compound 3]	–	92%	933 nM
Fc1cnc(-n2ccc3c(Nc4c(Cl)cccc4Cl)nccc32)nc1 [Compound 164]	–	101%	37.2 nM
Cc1ccnc(C)c1Nc1nccc2c1ccn2CC1CC1(F)F (stereo not drawn) [Compound 2]	–	99%	91.2 nM
Cc1ccnc(C)c1Nc1nccc2c1ccn2CCC1CC1(F)F (stereo not drawn) [Compound 94]	6.86	99%	–
Cc1cnc(Cn2ccc3c(Nc4c(Cl)cc(F)cc4Cl)nccc32)o1 [Compound 143]	7.41	100%	–
